Measured values taken from patent US10947185B2, “Crystal form of dezocine and preparation method therefor” (priority 2017, dated 2021).
≈ marks a conversion by molar mass, not a printed value. Like-named read-outs stand apart in the source and are kept apart here.

How the values were obtained:
[1] = relative to Dolantin; cited from earlier work
[2] = Stability test: changes of related substances over 6 months; type: physicochemical
Source text: iii. Compared with the sample of crystal Form I of dezocine, the new crystal form of dezocine prepared according to the present application has better stability, and changes of the related substances within the new crystal form of dezocine over 6 months are as follows: […]

[3] = Solubility test in 0.1 mol/L hydrochloric acid solution; type: physicochemical; details: for solubility: 50 mg sample

Row | SMILES | Analgesic intensity, onset time, duration of action and maximum analgesic effect, stronger than those of Dolantin [1] | Related substances ([2]; 0 days) [%] | Related substances ([2]; 1 month) [%] | Related substances ([2]; 3 months) [%] | Related substances ([2]; 6 months) [%] | solubility [3] [mg/mL] | Solubility increase compared with crystal Form I of dezocine [3] | solubility ([3]; simulated gastric fluid, thermodynamic from solid, read-out: Solubility) [mg/mL]
1 | C[C@@]12CCCCC[C@@H](Cc3ccc(O)cc31)[C@@H]2N (relative stereo) [Dezocine, (−)-[5R-(5α,11α,13S*)]-13-amino-5,6,7,8,9,10,11,12-octahydro-5-methyl-5,11-methanobenzocy clodecen-3-ol] | 5-9 times |  |  |  |  |  |  | 
2 | C[C@@]12CCCCC[C@@H](Cc3ccc(O)cc31)[C@@H]2N (relative stereo) [Example 1, (−)-[5R-(5α,11α,13S*)]-13-amino-5,6,7,8,9,10,11,12-octahydro-5-methyl-5,11-methanobenzocy clodecen-3-ol] |  | 0.06 | 0.07 | 0.10 | 0.13 |  |  | 
3 | C[C@@]12CCCCC[C@@H](Cc3ccc(O)cc31)[C@@H]2N (relative stereo) [Example 2, (−)-[5R-(5α,11α,13S*)]-13-amino-5,6,7,8,9,10,11,12-octahydro-5-methyl-5,11-methanobenzocy clodecen-3-ol] |  | 0.07 | 0.09 | 0.10 | 0.12 |  |  | 
4 | C[C@@]12CCCCC[C@@H](Cc3ccc(O)cc31)[C@@H]2N (relative stereo) [Example 3, (−)-[5R-(5α,11α,13S*)]-13-amino-5,6,7,8,9,10,11,12-octahydro-5-methyl-5,11-methanobenzocy clodecen-3-ol] |  | 0.04 | 0.05 | 0.8 | 0.10 |  |  | 
5 | C[C@@]12CCCCC[C@@H](Cc3ccc(O)cc31)[C@@H]2N (relative stereo) [Example 4, (−)-[5R-(5α,11α,13S*)]-13-amino-5,6,7,8,9,10,11,12-octahydro-5-methyl-5,11-methanobenzocy clodecen-3-ol] |  | 0.06 | 0.08 | 0.10 | 0.12 |  |  | 
6 | C[C@@]12CCCCC[C@@H](Cc3ccc(O)cc31)[C@@H]2N (relative stereo) [Example 5, (−)-[5R-(5α,11α,13S*)]-13-amino-5,6,7,8,9,10,11,12-octahydro-5-methyl-5,11-methanobenzocy clodecen-3-ol] |  | 0.04 | 0.06 | 0.07 | 0.09 |  |  | 
7 | C[C@@]12CCCCC[C@@H](Cc3ccc(O)cc31)[C@@H]2N (single isomer, unassigned) [Crystal Form I of dezocine, (−)-[5R-(5α,11α,13S*)]-13-amino-5,6,7,8,9,10,11,12-octahydro-5-methyl-5,11-methanobenzocy clodecen-3-ol, reference compound] |  | 0.08 | 0.15 | 0.21 | 0.28 | 25 (≈ 102 mM) |  | 
8 | C[C@@]12CCCCC[C@@H](Cc3ccc(O)cc31)[C@@H]2N (single isomer, unassigned) [Crystal Form II of dezocine, (−)-[5R-(5α,11α,13S*)]-13-amino-5,6,7,8,9,10,11,12-octahydro-5-methyl-5,11-methanobenzocy clodecen-3-ol] |  |  |  |  |  |  | about 32% | 33 (≈ 134 mM)
